This is an account of results in patent publication US20260216107A1, “INTERLEUKIN-6 (IL-6)/SIGNAL TRANSDUCER AND ACTIVATOR OF TRANSCRIPTION 3 (STAT3) PATHWAY INHIBITORS FOR USE IN THE TREATMENT OF GRANULOMATOUS DISEASES” (UCL BUSINESS LTD, priority 2023, published 2026).

“Also recorded” adds a separate entry of the source.

The test system of test [1] is THP1 monocytes. Kind of test: PR3-stimulated giant cell formation in THP1 monocytes matured to macrophages. The class given is cell-based. The conditions noted are these: PMA 24 hours, PR3 10 mcg/ml 72 hours, with or without Stattic; FIG. 19. Here is the method:
An in vitro model of granulomatous disease was created using THP1 monocytes. The THP1 monocytes were matured to macrophages by the addition of PMA for 24 hours and then stimulated with PR3 at 10 mcg/ml for 72 hours in the presence or absence of Stattic, a STAT3 inhibitor. MGC formation was assessed as before by calculating the fusion index.

For test [2], the system named is macrophage aggregation. Kind of test: PR3-induced macrophage aggregation / MGC formation in zebrafish embryos, niclosamide added to fish water. It is filed as in vivo. The following applies: for Median aggregate volume: PR3-injected zebrafish, PR3 alone 106969 (41031-465184). Here is the method: The injection of intact or HI PR3 into the zebrafish was repeated in the presence or absence of the IL-6/STAT3 inhibitor niclosamide, which was added to the fish water at different concentrations (0.01-0.3 μmol/l) (FIG. 11B, C). […] Median aggregate volume PR3 vs PR3 and niclosamide 0.3, 0.15. 0.05. 0.01 μmol/ml respectively 106969 (41031-465184), 42730 (25638-324957), 44501 (26861-90354), 63043 (27395-205060), 117473 (35128-245781) (p<0.05 PR3 vs 0.3 and 0.05, p<0.001 PR3 vs 0.15 μmol/l; one way ANOVA).
In Vivo Effect of PR3 on MGC Formation and the Ability of Niclosamide to Reduce MGC Formation In order to understand granuloma formation in vivo, a zebrafish embryo model was developed. Transgenic macrophage reporter zebrafish {Tg (MPEg: cherry)} embryos at 24 hpf, were injected into the yolk sac with human PR3 or Albumin at 1 or 5 […], either untreated or following heat inactivation. Embryos were imaged at 120 hpf with lightsheet microscopy showing volumes of fused macrophages according to the colour scale (see FIG. 8A-D). […] Median (IQR) aggregate volumes were HI albumin 5 pg/ml 22713 μm^3 (19918-31486) and HI PR3 5 pg/ml 31571 μm^3 (23137-49647) (p<0.001, one way ANOVA). In subsequent experiments, the injection of intact or HI PR3 was repeated in the presence or absence of the IL-6-STAT3 inhibitor niclosamide, added to the fish water at different concentrations (0.01-0.3 μmol/l) (see FIG. 8F-G). […] Median aggregate volume PR3 vs PR3 and niclosamide 0.3, 0.15. 0.05. 0.01 μmol/ml respectively 106969 (41031-465184), 42730 (25638-324957), 44501 (26861-90354), 63043 (27395-205060), 117473 (35128-245781) (p<0.05 PR3 vs 0.3 and 0.05, p<0.001 PR3 vs 0.15 μmol/l; one way ANOVA).
In Vivo Danio rerio Model All animal experimental protocols were approved by University College London's Animal Welfare and Ethical Review Body (AWERB) and licensed by the UK Home Office. All experiments were performed in accordance with relevant guidelines and regulations as described in UK Home Office Project License (PPL 70/8365) awarded to Dr Paul Frankel. The Transgeneic Tg (mpeg: GFP) line was kindly provided by Professor Maggie Dallman (Imperial College London, UK). Zebrafish were maintained in mixed-sex populations at 28° C. with a 14 h: 10 h light: dark cycle from 9 am-[…] and within internationally agreed environmental parameters regarding water quality and composition. Following dechorionation and anaesthesia with tricaine (0.2 mg/ml), embryos were microinjected into the yolk sac with 5 pg/mL of PR3, heat inactivated PR3, or albumin and incubated in 10 cm Petri dishes at 28.5° C. After 5 days, living embryos were anaesthetised with tricaine (0.2 mg/ml) and embedded in 2% agarose for 3-dimensional confocal microscopy using a Ziess camera at ×200 magnification to determine macrophage fusion. Z-stacks were analysed using Imaris software version 9.2. Images were 3D rendered and aggregate volumes measured by automated thresholds.

Test [3] relates to IL-6. Nature of the test: IL-6 levels in zebrafish model of granulomatous disease. It is filed as in vivo. The conditions noted are these: PR3 zebrafish model, niclosamide via fish tank water. From the text:
An in vivo model of granulomatous disease in zebrafish was developed by administering PR3 to the fish.

The subject of test [4] is GPA patients' monocytes. Kind of test: PR3-stimulated MGC formation (fusion index) in GPA patients' monocytes. The class given is cell-based, human. The conditions noted are these: cultured monocytes; Tocilizumab 10 μg/mL.

Turning to `O=[N+]([O-])c1ccc2c(c1)S(=O)(=O)C=C2` [Stattic], the “giant cell formation index” value in test [1] is listed as “significant decrease; also recorded: lower giant cell formation index”.

As for `O=C(Nc1ccc([N+](=O)[O-])cc1Cl)c1cc(Cl)ccc1O` [niclosamide, Niclosamide], in test [2] (FIG. 8F, G, 0.3, 0.15 and 0.05 μmol/ml niclosamide compared to PR3 alone), the “aggregate volume and number” value is “reduction in aggregate volume and number”. Also, the Median aggregate volume in test [2] (niclosamide 0.01 μmol/l in fish water) is on record as 117473 (35128-245781) μm^3; in test [2] (niclosamide 0.05 μmol/l in fish water, p<0.05) it was 63043 (27395-205060) μm^3; in test [2] (niclosamide 0.15 μmol/l in fish water, p<0.001) it was 44501 (26861-90354) μm^3; in test [2] (niclosamide 0.3 μmol/l in fish water, p<0.05) it was 42730 (25638-324957) μm^3. The granuloma formation entry in test [2] (PR3 zebrafish model, niclosamide via fish tank water) is recorded as “significantly inhibit granuloma formation”. Further, the macrophage aggregation result in test [2] (after injection of enzymatically active or inactive PR3 into the yolk sac) was “significantly attenuated”. In addition, in test [2] (zebrafish injected with intact or HI PR3, niclosamide 0.01-0.3 μmol/l in fish water, vs PR3 alone), the MGC formation entry was “significantly less MGC formation”. Also, in test [2] (zebrafish injected with intact or HI PR3, niclosamide in fish water), the “concentration at which the reduction of MGC formation was maximal” value was 0.15 µmol/mL. For the same compound, in test [3], the IL-6 levels result is on record as “reduce IL-6 levels”.

For the compound “Tocilizumab: humanised IgG1 monoclonal antibody against the human interleukin-6 (IL-6) receptor (RoActerma, Roche, UK)”, the granuloma formation result in test [4] is “reduced granuloma formation”.
